Source: US20260240836A1, “ENHANCER OF PHYSIOLOGICAL ACTIVITY OF HEPATOCYTE GROWTH FACTOR” (KYOWA HAKKO BIO CO., LTD., priority 2023, published 2026)

Legend:
[1] = biological target: T1, binding between HGF and c-Met (Homo sapiens, UniProt P14210); experiment: ELISA-like HGF-c-Met binding assay on plate with immobilized recombinant c-Met; conditions: NC set to 1
T1 construct: purchased R&D Systems
Experimental: The effect of the addition of glutathione trisulfide (GSSSG) or lipoic acid trisulfide (LA-SSS) on the binding (affinity) between HGF and c-Met was examined by the following method. GSSSG or LA-SSS was added to recombinant HGF (R&D Systems) at a molar ratio of 1:4000 (HGF:GSSSG or HGF:LA-SSS) (FIG. 1(A)) or 1:8000 (HGF:GSSSG or HGF:LA-SSS) (FIG. 1(B)). An ELISA-like HGF-c-Met binding assay was performed using a 96-well cluster plate with immobilized recombinant c-Met (R&D Systems) (Tatsumni et al. 2002; the principle of this method is schematically shown in FIG. 1(C)). Table 2 and FIGS. 1(A) and (B) show the relative values of each experimental group, with the A450-535 nm (absorbance at 450 nm minus absorbance at 535 nm) of the negative control (NC) set to 1.
In Table 2 and FIG. 1, NC: negative control (no addition), PC: positive control (HGF only addition), PC′: addition of solvent used to dissolve GSSSG and HGF, A′: addition of solvent used to dissolve GSSSG, GSSSG, and HGF (1 ng/ml), A: addition of solvent used to dissolve GSSSG and GSSSG, PC″: addition of solvent used to dissolve LA-SSS and HGF, B′: addition of solvent used to dissolve LA-SSS, LA-SSS, and HGF (1 ng/ml), B: addition of solvent used to dissolve LA-SSS and LA-SSS.

[2] = test system: muscle stem cells (satellite cells); experiment: Muscle stem cell (satellite cell) activation by HGF, BrdU pulse labeling; type: cell-based, rat; conditions: for Percentage of BrdU-positive cells (%): NC 46.9; for percentage of BrdU-positive cells / enhancing effect on muscle stem cell activation by HGF: HGF 3 ng/ml; for percentage of BrdU-positive cells: trisulfide at 4000 or 8000 moles per 1 mole HGF, vs. NC, p<0.05; for enhancing effect on muscle stem cell activation by HGF: trisulfide at 8000 moles per 1 mole HGF
Experimental: The effect of the addition of GSSSG or LA-SSS on the muscle stem cell activation effect of HGF (3 ng/ml) was examined by the following method. GSSSG or LA-SSS was added to recombinant HGF (R&D Systems) at a molar ratio of 1:4000 (HGF:GSSSG or HGF:LA-SSS) (FIG. 2(A)) or 1:8000 (HGF:GSSSG or HGF:LA-SSS) (FIG. 2(B)). The activation effect of HGF was measured using a culture system of muscle stem cells (satellite cells). Quiescent muscle stem cells were isolated from the skeletal muscle of 8-9-month-old mature rats in accordance with a modified method of Allen et al. (1997) (Tatsumi et al. 2006), and cultured for 24 hours in DMEM containing 10% normal horse serum (DMEM-10% HS, pH 7.2). HGF mixed with GSSSG or LA-SSS was added to a final concentration of 3 ng/ml, and after further culture for 24 hours, the activation rate of muscle stem cells was measured by the bromodeoxyuridine (BrdU) pulse labeling method. Cells that had incorporated BrdU were visualized with an anti-BrdU monoclonal antibody, and the percentage of positive cells was used as an indicator of muscle stem cell activation (Tatsumi et al. 1998).
In FIG. 2, NC: negative control (no addition), PC: positive control (HGF only addition), A′: addition of GSSSG and HGF (3 ng/ml), A: addition of GSSSG, B′: addition of LA-SSS and HGF (3 ng/ml), B: addition of LA-SSS.
The effect of the addition of GSSSG or LA-SSS on the muscle stem cell activation effect of HGF (1 ng/ml) was examined in the same manner as in Example 2, except that the final concentration of HGF was 1 ng/ml instead of 3 ng/ml.
In Table 3 and FIG. 4, NC: negative control (no addition), PC′: positive control (HGF (I ng/ml) only addition), A′: addition of GSSSG and HGF (I ng/ml), A: addition of GSSSG, B′: addition of LA-SSS and HGF (1 ng/ml), B: addition of LA-SSS, PC: positive control (HGF (3 ng/ml) only addition).

[3] = 1:4000 series, trisulfide and its solvent without HGF
[4] = 1:8000 series, trisulfide and its solvent without HGF
[5] = HGF:A,B molar ratio 1:4000 series, HGF 1 ng/mL present, PC′/PC″ = HGF plus solvent only
[6] = HGF:A,B molar ratio 1:8000 series, HGF 1 ng/mL present, PC′/PC″ = HGF plus solvent only
[7] = HGF 1 ng/ml present, trisulfide at 1:8000 molar ratio, PC′ = HGF 1 ng/ml only

T1 sequence (P14210 32-494 limits assumed): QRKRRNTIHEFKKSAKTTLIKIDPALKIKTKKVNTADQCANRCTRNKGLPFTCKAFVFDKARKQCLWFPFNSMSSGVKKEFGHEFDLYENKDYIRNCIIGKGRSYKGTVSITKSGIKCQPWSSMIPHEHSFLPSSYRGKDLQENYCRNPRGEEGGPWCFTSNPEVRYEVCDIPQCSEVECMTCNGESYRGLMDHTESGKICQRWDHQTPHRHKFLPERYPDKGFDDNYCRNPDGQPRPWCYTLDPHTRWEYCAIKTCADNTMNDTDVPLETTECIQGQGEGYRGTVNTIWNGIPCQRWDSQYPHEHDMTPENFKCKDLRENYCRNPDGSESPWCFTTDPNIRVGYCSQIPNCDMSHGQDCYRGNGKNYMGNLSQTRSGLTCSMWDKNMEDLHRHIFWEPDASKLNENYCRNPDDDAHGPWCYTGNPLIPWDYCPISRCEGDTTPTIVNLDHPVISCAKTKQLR

Row | A450-535 um (Relative units) (Average value) [1, 3] | A450-535 um (Relative units) (Average value) [1, 4] | A450-535 um (Relative units) (Average value) [1, 5] | A450-535 um (Relative units) (Average value) [1, 6] | Compound | Percentage of BrdU-positive cells (%) [2, 7] | percentage of BrdU-positive cells [2] | enhancing effect on muscle stem cell activation by HGF [2] | Percentage of BrdU-positive cells (%) ([2]; trisulfide alone, without HGF) | other results
1 | 1.21 | 1.16 | increased | significantly increased | N[C@@H](CCC(=O)N[C@@H](CSSSC[C@H](NC(=O)CC[C@H](N)C(=O)O)C(=O)NCC(=O)O)C(=O)NCC(=O)O)C(=O)O [GSSSG, glutathione trisulfide] | increased | significantly increased | not observed | 47.5 | A450-535 um (Relative units) (Average value) ([1]; HGF:A,B molar ratio 1:4000 series, HGF 1 ng/mL present, PC′/PC″ = HGF plus solvent only, listed as A′): 9.67 Relative units; A450-535 um (Relative units) (Average value) ([1]; HGF:A,B molar ratio 1:8000 series, HGF 1 ng/mL present, PC′/PC″ = HGF plus solvent only, listed as A′): 11.22 Relative units; Percentage of BrdU-positive cells (%) ([2]; HGF 1 ng/ml present, trisulfide at 1:8000 molar ratio, PC′ = HGF 1 ng/ml only, listed as A′): 57.5%
2 | 1.28 | 1.14 | increased | significantly increased | O=C(O)CCCCC1CCSSS1 (stereo not drawn) [LA-SSS, lipoic acid trisulfide] | significantly increased | significantly increased | not observed | 48.8 | A450-535 um (Relative units) (Average value) ([1]; HGF:A,B molar ratio 1:4000 series, HGF 1 ng/mL present, PC′/PC″ = HGF plus solvent only, listed as B'): 9.55 Relative units; A450-535 um (Relative units) (Average value) ([1]; HGF:A,B molar ratio 1:8000 series, HGF 1 ng/mL present, PC′/PC″ = HGF plus solvent only, listed as B′): 19.60 Relative units; Percentage of BrdU-positive cells (%) ([2]; HGF 1 ng/ml present, trisulfide at 1:8000 molar ratio, PC′ = HGF 1 ng/ml only, listed as B′): 64.2%
3 |  |  |  |  | HGF: recombinant hepatocyte growth factor (R&D Systems); positive control, alone or with trisulfide solvent | significantly increased |  |  |  | A450-535 um (Relative units) (Average value) ([1]; HGF:A,B molar ratio 1:4000 series, HGF 1 ng/mL present, PC′/PC″ = HGF plus solvent only, listed as PC′): 9.39 Relative units; A450-535 um (Relative units) (Average value) ([1]; HGF:A,B molar ratio 1:4000 series, HGF 1 ng/mL present, PC′/PC″ = HGF plus solvent only, listed as PC″): 9.00 Relative units; A450-535 um (Relative units) (Average value) ([1]; HGF:A,B molar ratio 1:8000 series, HGF 1 ng/mL present, PC′/PC″ = HGF plus solvent only, listed as PC′): 10.21 Relative units; A450-535 um (Relative units) (Average value) ([1]; HGF:A,B molar ratio 1:8000 series, HGF 1 ng/mL present, PC′/PC″ = HGF plus solvent only, listed as PC″): 10.04 Relative units; A450-535 um (Relative units) (Average value) ([1]; positive control, HGF only addition): 9.85 Relative units; Percentage of BrdU-positive cells (%) ([2]; HGF 1 ng/ml present, trisulfide at 1:8000 molar ratio, PC′ = HGF 1 ng/ml only, listed as PC′): 55.3%; Percentage of BrdU-positive cells (%) ([2]; HGF 3 ng/ml only addition): 65.9%
